Source: patent US6645529B2, “Instant granules and process for their formulation” (Dr. Gergely & Co., priority 2000, dated 2003)

Columns and labels:
bulk density = type: physicochemical; details: for bulk density (g/100 ml): Table 1, preferred carrier materials; for Bulk density in g/100 ml: Table 3, carrier materials
[1] = dissolving times of different carrier materials; type: physicochemical; details: 10 g in 100 ml water of 17° C., stirred at 500 rpm, visual
Procedure: Testing conditions: 10 g of each carrier material was added to 100 ml water of 17° C. in a 400 ml beaker and stirred at 500 rpm by a magnetic stirrer. Dissolution was determined visually.

[2] = listed as mannitol (fine granulated)

SMILES	bulk density (g/100 ml) (bulk density)	Dissolving time [1]	Bulk density in g/100 ml (bulk density)	Dissolving time [1, 2]	Bulk density in g/100 ml (bulk density; [2])
O.O=P([O-])(O)O.O=P([O-])(O)O.[Ca+2] [monocalcium phosphate.H2O]	82 g/100 ml				
OC[C@@H](O)[C@@H](O[C@H]1O[C@H](CO)[C@@H](O)[C@H](O)[C@H]1O)[C@H](O)[C@@H](O)CO [hydrogenated maltose]	90 g/100 ml	200 s	90 g/100 ml		
OC[C@@H](O)[C@@H](O)[C@H](O)[C@H](O)CO [mannitol]	63 g/100 ml			95 s	62 g/100 ml
O.O.O=C([O-])CC(O)(CC(=O)[O-])C(=O)[O-].[Na+].[Na+].[Na+] [trisodiumcitrate.2H2O]	95 g/100 ml	85 s	95 g/100 ml		
OC[C@@H](O)[C@@H](O)[C@H](O)[C@@H](O)CO [sorbitol (spray dried), sorbitol]	45 g/100 ml	50 s	45 g/100 ml		
OC[C@@H](O)[C@@H](O)[C@H](O)[C@H](O)CO [mannitol (spray dried), mannitol]	45 g/100 ml	55 s	45 g/100 ml		
OC[C@H]1O[C@@](CO)(O[C@H]2O[C@H](CO)[C@@H](O)[C@H](O)[C@H]2O)[C@@H](O)[C@@H]1O [saccharose (coarse grain), saccharose]	88 g/100 ml				
OC[C@H]1O[C@@](CO)(O[C@H]2O[C@H](CO)[C@@H](O)[C@H](O)[C@H]2O)[C@@H](O)[C@@H]1O [saccharose (fine grain), saccharose]	81 g/100 ml				
OC[C@@H](O)[C@@H](O)[C@H](O)[C@@H](O)CO [sorbitol]	58 g/100 ml	90 s	58 g/100 ml		
OC[C@H]1O[C@@](CO)(O[C@H]2O[C@H](CO)[C@@H](O)[C@H](O)[C@H]2O)[C@@H](O)[C@@H]1O [instant sugar]	50 g/100 ml	15 s	45 g/100 ml		
OC[C@H]1O[C@@H](O[C@H]2[C@H](O)[C@@H](O)C(O)O[C@@H]2CO)[C@H](O)[C@@H](O)[C@H]1O (stereo partly drawn) [lactose]	69 g/100 ml	120 s	69 g/100 ml		
